Measurements from publication PMC10800876, “Evaluation of proline-rich antimicrobial peptides as potential lead structures for novel antimycotics against Cryptococcus neoformans” (Frontiers in Microbiology, 2024).
Converted amounts (≈) assume the structure as drawn. Read-outs that look alike come from different tables or passages of the source. Non-standard residues stand in square brackets, D forms with d. Residues, ends and D or L forms follow the SMILES beside them. *: point of attachment. Orn(α-tetramethylguanidino) = CN(C)C(=N[C@@H](CCCN)C(=O)*)N(C)C; Ac6c = NC1(C(=O)O)CCCCC1

Assays:
C. neoformans 1841 [1] = test: Time-kill assay; format: cell-based, Cryptococcus neoformans; conditions: 2.5 μmol/L, 30°C, up to 24 h
Experimental: The kinetic effects of the antifungal activity were determined by diluting overnight cultures to 5 × 10^4 CFU/mL with 50% SAB in phosphate buffer. Aqueous peptide solutions (20 μL) were added to the cell suspension (80 μL) to give a final peptide concentration of 2.5 μmol/L. Samples were incubated at 30°C on an orbital shaker (750 rpm, Titramax 1,000, Heidolph Instruments GmbH & Co. KG) for 24 h. Before incubation (0 min) and after 45 min, 90 min, 3 h, 6 h, and 24 h incubation, aliquots (10 μL) of samples were taken and diluted with phosphate buffer (10 mmol/L, pH 7.5) to observe countable cell colonies. Aliquots (100 μL) of the diluted cell suspensions were plated on SAB agar plates. Plates were incubated at 30°C and colonies were counted after 24 h.

[2] = tested on: C. neoformans 1841 (serotype D); conditions: for MIC (μmol/L) 1841 48 h: 1841 (serotype D, 48 h, pH 7.5); for MIC (μmol/L) 1841 24 h: 1841 (serotype D, 24 h, pH 7.5)
C. neoformans 1841 [3] = test: Antifungal activity assay (CFU on SAB agar); format: cell-based, Cryptococcus neoformans; conditions: treatment 3 h, 30 °C, mean ± SD, n = 4; for cell count C. neoformans 1841, 24 h: CFU counted after 24 h; for cell count C. neoformans 1841, 48 h: CFU counted after 48 h
C. neoformans 1841 [4] = test: Scanning electron microscopy, damaged cells; format: cell-based, Cryptococcus neoformans; conditions: 200 μmol/L, 10^8 CFU/mL, 3 h, 30°C
Experimental: Overnight cultures of C. neoformans 1841 were prepared as described and adjusted with 50% SAB in phosphate buffer to reach 1 × 10^8 CFU/mL. Aqueous peptide solutions (20 μL) were added to the cell suspension (80 μL) to give a final peptide concentration of 200 μmol/L. Samples were incubated at 30°C on an orbital shaker (750 rpm) for 3 h. Samples were centrifuged (2,000 × g, 10 min, 4°C, Microfuge 22R, Beckmann Coulter), cell pellets were washed with ice-cold phosphate-buffered saline (PBS, 100 μL) and centrifuged again. Cell pellets were re-suspended in PBS (25 μL) and adhered overnight in humid atmosphere to glass coverslips (Borosilicate Glass, VWR International GmbH) previously coated with 0.001% poly-L-lysine (in case of Critical-Point Drying). Cells were fixed (2% glutaraldehyde, 2% paraformaldehyde, in PBS) for 60 min and afterwards stained with 1% OsO4 in PBS for 60 min. The cells were gradually dehydrated in ethanol series (30, 50, 70, 85, 90, 96% (once), and 100% (thrice) for 10 min. The coverslips were critical-point-dried (Baltec CPD 030, BAL-TEC GmbH, Schalksmühle, Germany) or air-dried after incubation with HMDS (3 min, RT) and sputter coated with 20 nm gold/palladium (Baltec MED 020, BAL-TEC GmbH). Cells were visualized using the SEM secondary electron detector (Zeiss EVO LS 15 LaB6, Carl Zeiss Microscopy Deutschland GmbH).
GraphPad Prism 10.0.3 software was used for statistical analysis of the recorded data. A Dunnett’s multiple comparisons test (Ordinary-one-way ANOVA) was performed.

C. neoformans H99 = test: Antifungal activity assay (CFU on SAB agar); format: cell-based, Cryptococcus neoformans; conditions: treatment 3 h, 30 °C, mean ± SD, n = 4; for cell count C. neoformans H99, 24 h: CFU counted after 24 h; for cell count C. neoformans H99, 48 h: CFU counted after 48 h
[5] = tested on: C. neoformans strains 1841, H99, and KN99α; test: Antifungal activity assay (CFU); format: cell-based, Cryptococcus neoformans
[6] = tested on: C. neoformans strains 1841, H99, and KN99α; test: Broth microdilution assay (MIC); format: cell-based, Cryptococcus neoformans
C. neoformans KN99α = test: Antifungal activity assay (CFU on SAB agar); format: cell-based, Cryptococcus neoformans; conditions: treatment 3 h, 30 °C, mean ± SD, n = 4; for cell count C. neoformans KN99α, 24 h: CFU counted after 24 h; for cell count C. neoformans KN99α, 48 h: CFU counted after 48 h
[7] = tested on: C. neoformans KN99α (serotype A, mating type MATα); conditions: for MIC (μmol/L) KN99α 48 h: KN99α (serotype A, mating type MATα, 48 h); for MIC (μmol/L) KN99α 24 h: KN99α (serotype A, mating type MATα, 24 h)
[8] = tested on: C. neoformans H99 (serotype A); conditions: for MIC (μmol/L) H99 24 h: H99 (serotype A, 24 h)
[9] = broth microdilution, 50% SAB in phosphate buffer, 30°C, read after 24 h, n = 6
[10] = broth microdilution, 50% SAB in phosphate buffer, 30°C, read after 48 h, n = 6

SMILES | MIC (μmol/L) 1841 48 h [2] | cell count C. neoformans 1841, 24 h (C. neoformans 1841 [3]; 0.25 µmol/L) | cell count C. neoformans 1841, 48 h (C. neoformans 1841 [3]; 0.25 µmol/L) | cell count C. neoformans 1841, 24 h (C. neoformans 1841 [3]; 2.5 µmol/L) | cell count C. neoformans 1841, 48 h (C. neoformans 1841 [3]; 2.5 µmol/L) | cell count C. neoformans 1841, 24 h (C. neoformans 1841 [3]; 25 µmol/L) | cell count C. neoformans 1841, 48 h (C. neoformans 1841 [3]; 25 µmol/L) | damaged cells in SEM (C. neoformans 1841 [4]) | cell count C. neoformans H99, 24 h (C. neoformans H99; 0.25 µmol/L) | cell count C. neoformans H99, 48 h (C. neoformans H99; 0.25 µmol/L) | cell count C. neoformans H99, 24 h (C. neoformans H99; 2.5 µmol/L) | cell count C. neoformans H99, 48 h (C. neoformans H99; 2.5 µmol/L) | cell count C. neoformans H99, 24 h (C. neoformans H99; 25 µmol/L) | cell count C. neoformans H99, 48 h (C. neoformans H99; 25 µmol/L) | cell count C. neoformans KN99α, 24 h (C. neoformans KN99α; 0.25 µmol/L) | cell count C. neoformans KN99α, 48 h (C. neoformans KN99α; 0.25 µmol/L) | cell count C. neoformans KN99α, 24 h (C. neoformans KN99α; 2.5 µmol/L) | cell count C. neoformans KN99α, 48 h (C. neoformans KN99α; 2.5 µmol/L) | MIC (μmol/L) KN99α 48 h [7] | MIC (μmol/L) H99 24 h [8] | further results
CC[C@H](C)[C@H](NC(=O)[C@H](Cc1ccc(O)cc1)NC(=O)[C@@H](NC(=O)[C@@H]1CCCN1C(=O)[C@H](CCCNC(=N)N)NC(=O)[C@H](CC(N)=O)NC(=O)[C@H](CC(N)=O)NC(=O)[C@H](CCCN)N=C(N(C)C)N(C)C)C(C)C)C(=O)N1CCC[C@H]1C(=O)N[C@@H](CCCNC(=N)N)C(=O)N1CCC[C@H]1C(=O)N[C@@H](CCCNC(=N)N)C(=O)N1CCC[C@H]1C(=O)N1CCC[C@H]1C(=O)N[C@@H](Cc1c[nH]cn1)C(=O)N1CCC[C@H]1C(=O)N[C@@H](CCCNC(=N)N)C(=O)N[C@@H](CC(C)C)C(N)=O [Api88] ({Orn(α-tetramethylguanidino)}-NNRPVYIPRPRPPHPRL-NH2; N-terminus and C-terminus assumed) | 7.0 µmol/L (≈ 16 µg/mL) | 2.4 ± 0.1 x 10^4 CFU/mL | 2.4 ± 0.1 x 10^4 CFU/mL | 1.0 ± 0.1 x 10^4 CFU/mL | 1.0 ± 0.1 x 10^4 CFU/mL | 0.1 ± 0.0 x 10^4 CFU/mL | 0.1 ± 0.0 x 10^4 CFU/mL | only a small portion showed deep indentations | 2.7 ± 0.4 x 10^4 CFU/mL | 2.8 ± 0.5 x 10^4 CFU/mL | 3.0 ± 0.2 x 10^4 CFU/mL | 3.3 ± 0.3 x 10^4 CFU/mL | 1.7 ± 0.2 x 10^4 CFU/mL | 2.0 ± 0.4 x 10^4 CFU/mL | 3.0 ± 0.7 x 10^4 CFU/mL | 3.1 ± 0.8 x 10^4 CFU/mL | 3.0 ± 0.6 x 10^4 CFU/mL | 3.1 ± 0.7 x 10^4 CFU/mL | 7.0 µmol/L (≈ 16 µg/mL) | 7.0 µmol/L (≈ 16 µg/mL) | time-dependent antifungal effect (C. neoformans 1841 [1]): delayed antifungal effect; MIC (mg/L) 1841 24 h [2, 9]: 8 mg/L (≈ 3.49 µM); MIC (mg/L) 1841 48 h [2, 10]: 16 mg/L (≈ 6.98 µM); effect on CFU of C. neoformans strains H99 and KN99α ([5]; 2.5 μmol/L, 3 h incubation): did not significantly reduce the CFU; MIC at 48 h ([6]; 48 h, forward sequence compared with its scrambled sequence): 7.0 µmol/L (≈ 16 µg/mL); MIC ([6]; strains 1841, H99, and KN99α, 24 h): ≥ 3.5 µmol/L; cell count C. neoformans KN99α, 24 h (C. neoformans KN99α; 25 µmol/L): 1.5 ± 0.2 x 10^4 CFU/mL; cell count C. neoformans KN99α, 48 h (C. neoformans KN99α; 25 µmol/L): 1.6 ± 0.3 x 10^4 CFU/mL; MIC (mg/L) KN99α 24 h [7, 9]: 8 mg/L (≈ 3.49 µM); MIC (mg/L) H99 48 h [8, 10]: 8 mg/L (≈ 3.49 µM)
CC(C)C[C@H](NC(=O)[C@@H]1CCCN1C(=O)[C@@H]1CCCN1C(=O)[C@H](CCCNC(=N)N)NC(=O)[C@H](Cc1ccc(O)cc1)NC(=O)[C@@H]1CCCN1C(=O)[C@@H]1CCCN1C(=O)[C@H](CCCNC(=N)N)NC(=O)C1(NC(=O)[C@H](CCCNC(=N)N)NC(=O)[C@@H]2CCCN2C(=O)[C@H](CCCCN)NC(=O)[C@@H]2CCCN2C(=O)[C@H](CCCNC(=N)N)NC(=O)[C@@H]2CCCN2C(=O)[C@H](CCCNC(=N)N)NC(=O)[C@@H](NC(=O)[C@H](CCCNC(=N)N)NC(=O)[C@@H](N)CC(=O)O)C(C)C)CCCCC1)C(=O)N1CCC[C@H]1C(N)=O [Chex1Arg20 scr] (H-DRVRPRPKPR[Ac6c]RPPYRPPLP-NH2; N-terminus assumed) | 26 to 52 µmol/L | – | – | – | – | – | – | slightly lower percentage of damaged cells than Chex1Arg20 | – | – | – | – | – | – | – | – | – | – | 52 µmol/L (≈ 129 µg/mL) | 26 µmol/L (≈ 64.4 µg/mL) | MIC (mg/L) 1841 24 h ([2]; 1841 (serotype D, 24 h)): 32 to 64 mg/L; MIC (μmol/L) 1841 24 h [2]: 13 to 26 µmol/L; MIC (mg/L) 1841 48 h ([2]; 1841 (serotype D, 48 h)): 64 to 128 mg/L; MIC (μmol/L) KN99α 24 h [7]: 26 µmol/L (≈ 64.4 µg/mL); MIC (μmol/L) H99 48 h ([8]; H99 (serotype A, 48 h)): 52 µmol/L (≈ 129 µg/mL)
CC(C)C[C@H](NC(=O)[C@H](Cc1ccc(O)cc1)NC(=O)[C@@H]1CCCN1C(=O)[C@H](CCCNC(=N)N)NC(=O)[C@@H]1CCCN1C(=O)[C@H](CCCCN)NC(=O)[C@H](CC(=O)O)NC(=O)[C@@H]1CCCN1C(=O)[C@H](CCCNC(=N)N)NC(=O)C1(N)CCCCC1)C(=O)N1CCC[C@H]1C(=O)N[C@@H](CCCNC(=N)N)C(=O)N1CCC[C@H]1C(=O)N[C@@H](CCCNC(=N)N)C(=O)N1CCC[C@H]1C(=O)N1CCC[C@H]1C(=O)N[C@@H](CCCNC(=N)N)C(=O)N1CCC[C@H]1C(=O)N[C@H](C(=O)N[C@@H](CCCNC(=N)N)C(N)=O)C(C)C [Chex1Arg20] (H-[Ac6c]RPDKPRPYLPRPRPPRPVR-NH2; N-terminus assumed) | 3.2 µmol/L (≈ 7.92 µg/mL) | 2.7 ± 0.0 x 10^4 CFU/mL | 2.8 ± 0.1 x 10^4 CFU/mL | 0.0 ± 0.0 x 10^4 CFU/mL | 0.5 ± 0.1 x 10^4 CFU/mL | 0.0 ± 0.0 x 10^4 CFU/mL | 0.0 ± 0.0 x 10^4 CFU/mL | only a small portion showed deep indentations | 1.4 ± 0.7 x 10^4 CFU/mL | 1.6 ± 0.8 x 10^4 CFU/mL | 1.5 ± 1.0 x 10^4 CFU/mL | 2.5 ± 0.8 x 10^4 CFU/mL | 0.0 ± 0.0 x 10^4 CFU/mL | 0.8 ± 0.2 x 10^4 CFU/mL | 2.7 ± 0.4 x 10^4 CFU/mL | 2.7 ± 0.4 x 10^4 CFU/mL | 1.0 ± 0.6 x 10^4 CFU/mL | 1.8 ± 1.2 x 10^4 CFU/mL | 3.2 µmol/L (≈ 7.92 µg/mL) | 1.6 µmol/L (≈ 3.96 µg/mL) | MIC (μmol/L) 1841 24 h [2]: 1.6 µmol/L (≈ 3.96 µg/mL); colony formation on agar ([5]; only small colonies appearing after more than 24 h): delayed colony formation; MIC [6]: 4 to 16 mg/L; cell count C. neoformans KN99α, 24 h (C. neoformans KN99α; 25 µmol/L): 0.5 ± 0.8 x 10^4 CFU/mL; cell count C. neoformans KN99α, 48 h (C. neoformans KN99α; 25 µmol/L): 0.8 ± 0.9 x 10^4 CFU/mL; MIC (μmol/L) KN99α 24 h [7]: 1.6 µmol/L (≈ 3.96 µg/mL); MIC (mg/L) H99 48 h ([8]; H99 (serotype A, 48 h)): 4 to 8 mg/L; MIC (μmol/L) H99 48 h ([8]; H99 (serotype A, 48 h)): 1.6 to 3.2 µmol/L
